Assay results reported in US20180237774A1, “METHODS OF SCREENING FOR RIBOSWITCHES AND ATTENUATORS” (priority 2015, published 2018).
Converted amounts (≈) assume the structure as drawn. Positions of bridges follow the written chain, without caps; N, C: chain ends. Non-standard residues stand in square brackets, D forms with d. Residues, ends and D or L forms follow the SMILES beside them. *: point of attachment. Ileψ(thiazoline)Cys = CC[C@H](C)[C@H](N)C1=N[C@H](C(=O)*)CS1; dOrn = NCCC[C@@H](N)C(=O)O

Experiments:
B. subtilis = assay: Sublethal antibiotic concentration determination (growth-rate monitoring); type: cell-based, Bacillus subtilis str. 168; details: for Sublethal concentration (highest antibiotics concentration that did not cause growth-rate inhibition): Table 2; for Sublethal concentrations of antibiotics used in this study: Table 6
Description: (§1) A sublethal concentration for the antibiotics lincomycin, erythromycin, chloramphenicol, kanamycin, ofloxacin, ampicilin and bacitracin (Sigma) was determined for each of the organisms used in this study as follows. Bacterial cultures were propagated in LB or BHI O.N. in triplicates and diluted 1:200 into fresh media. Cultures were grown to early exponential phase (OD600=0.1-0.2) and then supplemented with serially diluted antibiotics stocks. The growth rate was dynamically monitored in intervals of 10-15 min using a 96 well plate format OD reader (Infinite M200 Tecan) for a period of at least 4 hours. […] To identify antibiotic-responsive regulators, bacteria were grown in LB or BHI in triplicates as described above and, upon reaching early exponential phase, 5 ml cultures were independently exposed for 15 minutes to the sublethal concentration of each antibiotic as determined above. Bacteria were then collected by centrifugation, flash frozen and stored in −80° C. until RNA extraction.

L. monocytogenes = assay: as above; type: cell-based, Listeria monocytogenes EGDe; details: for Sublethal concentration (highest antibiotics concentration that did not cause growth-rate inhibition): Table 2; for Sublethal concentrations of antibiotics used in this study: Table 6
Description: as §1

E. faecalis = assay: as above; type: cell-based, Enterococcus faecalis ATCC 29212; details: for Sublethal concentration (highest antibiotics concentration that did not cause growth-rate inhibition): Table 2; for Sublethal concentrations of antibiotics used in this study: Table 6
Description: as §1

L. monocytogenes Wt = assay: Minimal inhibitory concentration (MIC) determination in broth; type: cell-based; details: Listeria monocytogenes, 48 h, BHI, two days at 37° C.
Description: (§2) The MIC was determined in broth culturing conditions in the presence of serially diluted antibiotic concentrations. Briefly, the bacterial strains were grown O.N. at 37° C. in BHI agarose plates and 1-3 single colonies were collected into 1 ml of BHI broth. The OD600 was adjusted to 0.01 and then diluted 1:10 into a 96-well plate containing a final volume of 200 μl BHI supplemented with two-fold serial dilutions of lincomycin, erythromycin and chloramphenicol.

[1] = test system: L. monocytogenes Δlmo0919; assay: as above; type: cell-based, Listeria monocytogenes
Description: For mutant generation with pMAD-based plasmids^59, ˜600 nt regions of complementarity both upstream and downstream of a targeted region were either ordered as gBlocks (IDT) and amplified with gBlock-Up and Down oligonucleotides (Table 1) complimentary to uniform flanks on each gBlock corresponding to the 40 nts on either side of the pMAD multi-cloning site, or PCR amplified with Phusion High fidelity polymerase and reagents (Finnzymes, F-553) using genomic DNA as a template and then joined by a second splice overlap extension PCR reaction using the first two PCR products as template to generate a Upstream-Downstream (UD) PCR product (Table 1, lmo0919 deletion). PCR products were subsequently purified with QIAquick PCR purification columns (Qiagen, 28104), digested with the SalI and XmaI restriction enzymes (NEB), purified again as before, and ligated into SalI/XmaI digested pMAD plasmid for 1 hr at 25° C. with T4 DNA ligase (NEB, M0202S). 2 μl of each ligation were transformed into chemically competent E. coli Top10 (Invitrogen, C404003) cells according to the manufacturer's instructions. Transformants were screened by PCR and Sanger sequencing for the presence of the appropriate insert. Electrocompetent L. monocytogenes strains were transformed with the respective plasmid and mutagenesis carried out as described previously^59. Briefly, after transformation and plating onto selective BHI, 5 ug/ml erythromycin (Em) 80 ug/ml 5-bromo-4-chloro-3-indolyl-β-D-galactopyranoside (X-gal) plates, bacteria were grown at 30° C. for two days. A single blue colony was picked and transferred to liquid BHI broth and grown for an additional 6 hrs at 30° C. The colony was then diluted 1:1000 into 10 ml of BHI-Em and grown O.N. at 42° C., which prevents pMAD replication in the cytosol owing to a temperature sensitive ori. […]
The MIC was determined in broth culturing conditions in the presence of serially diluted antibiotic concentrations. […]

[2] = test system: L. monocytogenes uORF ATG > ACG; assay: as above; type: cell-based; details: Listeria monocytogenes, 48 h
Description: (§3) For mutant generation with pMAD-based plasmids^59, ˜600 nt regions of complementarity both upstream and downstream of a targeted region were either ordered as gBlocks (IDT) and amplified with gBlock-Up and Down oligonucleotides (Table 1) complimentary to uniform flanks on each gBlock corresponding to the 40 nts on either side of the pMAD multi-cloning site, or PCR amplified with Phusion High fidelity polymerase and reagents (Finnzymes, F-553) using genomic DNA as a template and then joined by a second splice overlap extension PCR reaction using the first two PCR products as template to generate a Upstream-Downstream (UD) PCR product (Table 1, lmo0919 deletion). PCR products were subsequently purified with QIAquick PCR purification columns (Qiagen, 28104), digested with the SalI and XmaI restriction enzymes (NEB), purified again as before, and ligated into SalI/XmaI digested pMAD plasmid for 1 hr at 25° C. with T4 DNA ligase (NEB, M0202S). 2 μl of each ligation were transformed into chemically competent E. coli Top10 (Invitrogen, C404003) cells according to the manufacturer's instructions. Transformants were screened by PCR and Sanger sequencing for the presence of the appropriate insert. Electrocompetent L. monocytogenes strains were transformed with the respective plasmid and mutagenesis carried out as described previously^59. Briefly, after transformation and plating onto selective BHI, 5 ug/ml erythromycin (Em) 80 ug/ml 5-bromo-4-chloro-3-indolyl-β-D-galactopyranoside (X-gal) plates, bacteria were grown at 30° C. for two days. A single blue colony was picked and transferred to liquid BHI broth and grown for an additional 6 hrs at 30° C. The colony was then diluted 1:1000 into 10 ml of BHI-Em and grown O.N. at 42° C., which prevents pMAD replication in the cytosol owing to a temperature sensitive ori. Serial dilutions were plated onto BHI-X-gal-Em plates and grown for two days at 42° C., and the process was reiterated several times until white colonies, in which the plasmid integrated into the genome, were recovered. Colonies were screened by colony PCR, and mutants were confirmed by Sanger sequencing.
as §2

[3] = test system: L. monocytogenes ΔAnti-anti-terminator; assay: as above; type: cell-based; details: Listeria monocytogenes, 48 h
Description: as §3, §2

[4] = test system: L. monocytogenes ΔAnti-terminator; assay: as above; type: cell-based; details: Listeria monocytogenes, 48 h
Description: as §3, §2

[5] = test system: 3aa uORF of the lmo0919 ribo-regulator homolog; assay: Ribosome profiling (Ribo-seq) of ribosome occupancy over the lmo0919 ribo-regulator uORF; type: cell-based; details: L. innocua; brief exposure to lincomycin versus control
Description: (§4) FIG. 14 is a graph illustrating lincomycin-dependent ribosome stalling in the lmo0919 ribo-regulator.
(§5) To characterize the effects of lincomycin on the interaction between the ribo-regulator and the ribosome levels of ribosome occupancy over the ribo-regulator in control and lincomycin-treated bacteria were measured using ribosome profiling (Ribo-seq) (23, 42). Strikingly, an ˜5 fold increase in ribosome occupancy over the 3aa uORFs in both L. monocytogenes and L. innocua was measured following brief exposure to lincomycin (FIG. 14) (23).

[6] = test system: 3aa uORF of the lmo0919 ribo-regulator; assay: as above; type: cell-based; details: L. monocytogenes; brief exposure to lincomycin versus control
Description: as §4, §5

lmo0919 regulator = assay: Lincomycin-dependent induction of lmo0919 in ErmC-expressing strain; type: cell-based, L. monocytogenes expressing ErmC; details: ErmC-expressing bacteria, ribosomes resistant to lincomycin
Description: FIG. 11 illustrates that the lmo0919 regulator senses ribosome inhibition. L. monocytogenes carrying the ErmC antibiotic resistance gene was assayed for lincomycin dependent induction. In the L. monocytogenes ErmC-expressing strain, in which ribosome are made immune to lincomycin via methylation of A2058 in the 23S rRNA, the lmo0919 regulator is unresponsive to the presence of the antibiotic (red).
The structural alterations in the lmo0919 ribo-regulator could either be mediated by direct binding of the antibiotic to the ribo-regulator (i.e., a riboswitch), or by attenuation, where the lincomycin-inhibited ribosomes stall on a uORF in the ribo-regulator, thus shifting the ribo-regulator structure from a “closed” to an “open” state. To differentiate between direct binding and ribosome-mediated regulation, lincomycin-dependent induction of lmo0919 in L. monocytogenes expressing the ErmC 23S rRNA methyltransferase was measured. In these bacteria the ribosomes are di-methylated at position A2058 of the 23S rRNA, rendering the ribosomes resistant to lincomycin.

[7] = test system: lmo0919 5′UTR regulator (rli53); assay: Antibiotic-dependent transcriptional readthrough by term-seq and RNA-seq; type: cell-based, L. monocytogenes; details: 15 minutes exposure to sublethal concentration
Description: as §1
(§6) Term-seq average coverage across triplicates was calculated for the premature termination site and the full length gene termination site with a span of 10 nt surrounding each terminator, and the fraction of full length (gene) terminations out of all termination events was used to as a measure of the transcriptional readthrough (FIG. 3A). In cases where the regulator controlled the transcription of a multi-gene operon, which contained internal TSSs in addition to the primary one, RNA-seq was used to determine readthrough in the first gene (FIGS. 4C and 4F). RNA-seq coverage was used to measure the median read coverage over either the regulatory element or the gene, and the ratio between the two (gene-coverage divided by regulator-coverage) was used as an estimate for the short/long transcript ratio generated by regulator activity (FIG. 3A).

[8] = test system: lmo1652 regulatory element (rli59); assay: as above; type: cell-based, L. monocytogenes
Description: as §1, §6

[9] = test system: EF2720 regulatory element; assay: as above; type: cell-based, E. faecalis
Description: as §1
Term-seq average coverage across triplicates was calculated for the premature termination site and the full length gene termination site with a span of 10 nt surrounding each terminator, and the fraction of full length (gene) terminations out of all termination events was used to as a measure of the transcriptional readthrough (FIG. 3A). […]

CC[C@H](C)[C@H](N)C1=N[C@H](C(=O)N[C@@H](CC(C)C)C(=O)N[C@H](CCC(=O)O)C(=O)N[C@H](C(=O)N[C@H]2CCCCNC(=O)[C@H](CC(N)=O)NC(=O)[C@@H](CC(=O)O)NC(=O)[C@H](Cc3cnc[nH]3)NC(=O)[C@@H](Cc3ccccc3)NC(=O)[C@H]([C@@H](C)CC)NC(=O)[C@@H](CCCN)NC2=O)[C@@H](C)CC)CS1 [Bacitracin] ({Ileψ(thiazoline)Cys}-L[dE]IK[dOrn]I[dF]H[dD]N; lactam 4-C)
Sublethal concentration (highest antibiotics concentration that did not cause growth-rate inhibition) (B. subtilis): 0.125 µg/mL
Sublethal concentrations of antibiotics used in this study (B. subtilis): 0.125 µg/mL
Sublethal concentration (highest antibiotics concentration that did not cause growth-rate inhibition) (L. monocytogenes): 8 µg/mL
Sublethal concentrations of antibiotics used in this study (L. monocytogenes): 8 µg/mL
Sublethal concentration (highest antibiotics concentration that did not cause growth-rate inhibition) (E. faecalis): 1 µg/mL
Sublethal concentrations of antibiotics used in this study (E. faecalis): 1 µg/mL

NC[C@H]1O[C@H](O[C@H]2[C@H](O)[C@@H](O[C@H]3O[C@H](CO)[C@@H](O)[C@H](N)[C@H]3O)[C@H](N)C[C@@H]2N)[C@H](O)[C@@H](O)[C@@H]1O [Kanamycin]
Sublethal concentration (highest antibiotics concentration that did not cause growth-rate inhibition) (B. subtilis): 0.5 µg/mL
Sublethal concentrations of antibiotics used in this study (B. subtilis): 0.5 µg/mL
Sublethal concentration (highest antibiotics concentration that did not cause growth-rate inhibition) (L. monocytogenes): 0.5 µg/mL
Sublethal concentrations of antibiotics used in this study (L. monocytogenes): 0.5 µg/mL
Sublethal concentration (highest antibiotics concentration that did not cause growth-rate inhibition) (E. faecalis): 16 µg/mL
Sublethal concentrations of antibiotics used in this study (E. faecalis): 16 µg/mL

CCC[C@@H]1C[C@@H](C(=O)N[C@@H]([C@H]2O[C@H](SC)[C@H](O)[C@@H](O)[C@H]2O)[C@@H](C)O)N(C)C1 [Lincomycin]
Sublethal concentration (highest antibiotics concentration that did not cause growth-rate inhibition) (B. subtilis): 0.5 µg/mL
Sublethal concentrations of antibiotics used in this study (B. subtilis): 0.5 µg/mL
Sublethal concentration (highest antibiotics concentration that did not cause growth-rate inhibition) (L. monocytogenes): 0.25 µg/mL
Sublethal concentrations of antibiotics used in this study (L. monocytogenes): 0.25 µg/mL
Sublethal concentration (highest antibiotics concentration that did not cause growth-rate inhibition) (E. faecalis): 2 µg/mL
Sublethal concentrations of antibiotics used in this study (E. faecalis): 2 µg/mL
MIC (L. monocytogenes Wt): 1 µg/mL (≈ 2.46 µM)
MIC ([1]; Listeria monocytogenes, 48 h): 0.25 µg/mL (≈ 0.615 µM)
Increase in sensitivity upon deletion of lmo0919 ([1]; Δlmo0919 versus wild type L. monocytogenes): 4 fold
MIC [2]: 0.25 µg/mL (≈ 0.615 µM)
MIC [3]: 8 µg/mL (≈ 19.7 µM)
MIC [4]: 0.25 µg/mL (≈ 0.615 µM)
Increase in ribosome occupancy over the 3aa uORF [5]: ~5 fold
Increase in ribosome occupancy over the 3aa uORF [6]: ~5 fold
Responsiveness of the lmo0919 regulator (lmo0919 regulator): no longer responsive
Activation of the lmo0919 5′UTR regulator (readthrough) [7]: specific activation
Response of the lmo1652 regulatory element [8]: responds
Response of the EF2720 regulatory element [9]: respond
